Assay results from US9006415B2, “Targeted delivery of nucleic acids” (Massachusetts Institute of Technology, priority 2010, dated 2015).

Legend:
HeLa cells = assay: Inhibition of endocytosis (uptake and GFP knockdown with small molecule inhibitors); format: cell-based, human; conditions: HeLa cells pre-incubated with inhibitor 1 h
Description: HeLa cells grown in 96-well plates at ˜70% confluence were incubated with small molecule inhibitors for 1 h at 37° C., followed by incubation with tetramethylrhodamine-labeled TP-LyP1 (3 μM) or TPNs containing both labeled peptide (3 μM) and GFP siRNA (100 nM) for an additional hour at 37° C. The cells were washed three times with cold PBS and were subsequently either imaged with a CCD camera mounted on a Nikon TE200 inverted epifluorescence microscope (for peptide-only), or trypsinized for flow cytometry analysis by the BD-LSR II system to assess GFP expression (for incubations with nanocomplexes).
To identify the mechanism by which tandem peptides enter cells, these experiments were repeated in the presence of a variety of endocytosis inhibitors [Veldhoen, S., Laufer, S. D., Trampe, A. & Restle, T. Cellular delivery of small interfering RNA by a non-covalently attached cell-penetrating peptide: quantitative analysis of uptake and biological effect. Nucleic Acids Res 34, 6561-6573, (2006)]. […] Thus, tandem peptides are taken up by cells mainly via macropinocytosis and lipid-raft.

p32 receptor = target: T1, p32 receptor (Homo sapiens, UniProt Q07021); assay: Competition of GFP silencing with free LyP-1 peptide; format: cell-based; conditions: nanocomplexes on HeLa cells
T1 construct: incubated over Hela cells, which express p32 on the cell surface; endogenous in cells; host or cells: HeLa (stably expressing dGFP)
T1 sequence (Q07021 74-282): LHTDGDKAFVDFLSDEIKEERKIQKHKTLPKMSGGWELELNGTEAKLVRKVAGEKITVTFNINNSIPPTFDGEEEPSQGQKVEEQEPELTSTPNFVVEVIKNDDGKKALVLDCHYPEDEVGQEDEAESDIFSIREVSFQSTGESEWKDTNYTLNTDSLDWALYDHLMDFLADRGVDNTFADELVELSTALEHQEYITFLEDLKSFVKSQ
Description: For the initial screen, HeLa cells stably expressing destabilized GFP were cultured in 96-well plates to ˜70-80% confluence. siRNA (0-100 nM) was incubated with 20-fold molar excess of tetramethylrhodamine-labelled tandem peptides in PBS for 10-15 min at room temperature, then incubated over cells in DMEM for 4 h at 37° C., after which the medium was replaced. The complexes were then added to HeLa cell cultures and incubated for 4 h at 37° C., after which the medium was replaced with 100 μL of fresh medium with 10% serum. […] For competition experiments with free LyP-1 peptide, cells were pre-incubated with unlabeled LyP-1 peptide or ARAL control peptide at specified concentrations for 1 h at 37° C. before treatment with peptide/siRNA complexes.

tumor parenchyma = assay: Tumor penetration with iRGD in place of Lyp-1; format: in vivo; conditions: data not shown

With `OCC1OC(O)CC(O)C1O` (stereo not drawn) [Deoxyglucose] the “GFP knockdown in presence of inhibitor” value (HeLa cells) was “inhibited GFP knockdown”.

With `CCCCCCCCCC(=O)NC(CN1CCOCC1)C(O)c1ccccc1` (stereo not drawn) [PDMP] the “GFP knockdown in presence of inhibitor” value (HeLa cells) was “significantly decreased” and the “cell binding of tandem peptide in presence of inhibitor” value (“cell binding … of inhibitor” for short) (HeLa cells) was “significantly decreased”.

In the case of `N=C(N)NC(=O)c1nc(Cl)c(N)nc1N` [amiloride], the “GFP knockdown in presence of inhibitor” value (HeLa cells) was “significantly decreased” and the “cell binding … of inhibitor” value (HeLa cells) was “significantly decreased”.

With `OC[C@H]1O[C@@H]2O[C@H]3[C@H](O)[C@@H](O)[C@@H](O[C@H]4[C@H](O)[C@@H](O)[C@@H](O[C@H]5[C@H](O)[C@@H](O)[C@@H](O[C@H]6[C@H](O)[C@@H](O)[C@@H](O[C@H]7[C@H](O)[C@@H](O)[C@@H](O[C@H]8[C@H](O)[C@@H](O)[C@@H](O[C@H]1[C@H](O)[C@H]2O)O[C@@H]8CO)O[C@@H]7CO)O[C@@H]6CO)O[C@@H]5CO)O[C@@H]4CO)O[C@@H]3CO` [β-cyclodextrin] the “GFP knockdown in presence of inhibitor” value (HeLa cells) was “significantly decreased” and the “cell binding … of inhibitor” value (HeLa cells) was “significantly decreased”.

ARALPSQRSR [control peptide] was tested, and the “effect of control peptide on GFP silencing” value (p32 receptor) was “no effect”.

For CRGDKGPDC [iRGD], the tumor penetration (tumor parenchyma) was “penetrate tumor parenchyma in a to time-dependent manner”.
